Reference: PMC3024946, “Hydroxyproline-containing collagen analogs trigger the release and activation of collagen-sequestered proMMP-2 by competition with prodomain-derived peptide P33-42” (Fibrogenesis & Tissue Repair, 2011)
Entries after “also recorded” stand apart in the source; their conditions may differ.

Molecular target: T1, proMMP-2 / CI (Homo sapiens, UniProt P08253)
T1 construct: prodomain-containing proMMP-2 or proMMP-9; purchased Invitek
T1 sequence (P08253 30-660 limits assumed): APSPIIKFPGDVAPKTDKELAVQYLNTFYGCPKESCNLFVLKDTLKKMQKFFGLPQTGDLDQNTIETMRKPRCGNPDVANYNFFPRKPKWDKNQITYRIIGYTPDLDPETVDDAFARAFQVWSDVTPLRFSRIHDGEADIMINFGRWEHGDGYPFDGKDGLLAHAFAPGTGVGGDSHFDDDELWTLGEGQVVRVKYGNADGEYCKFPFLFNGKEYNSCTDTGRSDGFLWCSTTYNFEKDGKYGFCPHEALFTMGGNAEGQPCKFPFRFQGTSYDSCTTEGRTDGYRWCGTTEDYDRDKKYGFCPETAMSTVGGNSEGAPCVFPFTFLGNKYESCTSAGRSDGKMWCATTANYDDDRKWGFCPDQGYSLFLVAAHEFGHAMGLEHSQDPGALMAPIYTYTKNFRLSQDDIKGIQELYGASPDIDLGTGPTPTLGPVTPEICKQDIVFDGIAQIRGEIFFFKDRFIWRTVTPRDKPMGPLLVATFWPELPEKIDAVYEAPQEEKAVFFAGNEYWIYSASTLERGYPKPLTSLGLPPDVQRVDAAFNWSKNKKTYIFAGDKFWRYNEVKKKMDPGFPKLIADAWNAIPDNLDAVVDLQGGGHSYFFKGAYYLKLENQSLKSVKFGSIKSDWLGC
Test: SPR, competition of proMMP-2 binding to CI, MMP activity buffer with Ro 28-2653
Conditions: for competition with proMMP-2 binding to CI: SPR, MMP activity buffer with Ro 28-2653; for Kd for binding to CI in the presence of 10-fold molar excess of competitor: proMMP-2 100 nM, MMP activity buffer, 1 μM Ro 28-2653, 25°C, mean ± SD, at least three experiments
Experimental: Sensor chip preparations and SPR measurements were performed using a BiacoreX device and the Bia-evaluation software (version 3.2; Biacore, Uppsala, Sweden). The pepsin-resistant triple-helical part of human fibrillar CI (100 μg/ml) in 10 mM acetate coupling buffer, pH 4.8, was immobilized to a dextran matrix-sensor chip at a flow rate of 5 μl/min, resulting in 5,500 resonance units from CI covalently linked via its primary amino groups. The control flow cell was prepared using the coupling buffer without CI. Surfaces were activated and blocked as described previously. Immediately after thawing, pro- and actMMP-2 and pro- and actMMP-9 were diluted to 100 to 250 nM in MMP activity buffer or in PBS and 0.05% (vol/vol) Tween 20. For SPR measurements, flow rates were 10 μl/min at 25°C, and equilibrium was typically reached after 30 to 60 s. The effects of (GPO)10, GAP, (POG)5, (GPP)10 and P33-42 on MMP-2 and MMP-9 binding to CI and their enzymatic activity were determined by adding the binding competitors to the (pro- and act)MMP-2 and MMP-9 solution in 10- to 150-fold molar excesses. Effects independent of MMP-2 and MMP-9 activity were monitored in the presence of Ro 28-2653 (1 μM) during SPR analysis. The gelatinase inhibitor Ro 28-2653 was a generous gift from H.-W. Krell (Roche, Grenzach-Wyhlen, Germany). Sensor surfaces were regenerated with 10 mM glycine, pH 2.3, for 1 min between runs, and sensor chips were used up to 25 times. Kinetic parameters were analyzed using the 1:1 binding model with drifting baseline and subtraction of the control flow cell binding from sensorgrams obtained with immobilized CI. Binding constants (Kd) were calculated from the association (ka) and dissociation rates (kd) obtained from individual binding curves at different concentrations. Individual drifts of the resonance signal were fitted locally, and χ^2 values of 0.2% to 1.0% of the maximum resonance value were considered good fits.

| Substance | competition with proMMP-2 binding to CI | Kd for binding to CI in the presence of 10-fold molar excess of competitor [nM] | reduction of affinity / increase in Kd of binding to CI (proMMP-2, 10-fold molar excess of competitor) |
| --- | --- | --- | --- |
| H-Gly-Cys-Pro-(Gly-Pro-Pro)10-Gly-Cys-Pro-Gly-NH2 [(GPP)10, Triple-helical Gly-Pro-Pro (GPP)10, devoid of Hyp] | much less efficient in competing with proMMP-2 binding to CI than the nonhelical (POG)5 | 42.1 ± 39.1 | about a sixfold increase |
| H-Gly-Cys-Hyp-(Gly-Pro-Hyp)10-Gly-Cys-Hyp-Gly-NH2 [(GPO)10, triple-helical Hyp-containing collagen analog] | comparable to that of (POG)5; also recorded: effectively compete proMMP-2 binding to CI | 155.5 ± 50.2 | – |
